Test results from patent US9437446B2, “Slurry for chemical mechanical polishing and chemical mechanical polishing method” (KURARAY CO., LTD., priority 2012, dated 2016).

Tests used:
[1] = pKa of the amino group (conjugated acid) of the amino compound used in the slurry; conditions: water

Description: Such value of the pKa can be measured by the potentiometric titration method. In the present specification, the pKa of the amino group is “pKa of conjugated acid of the amino group”.

pKa [1] | Structure (SMILES) | pKa (physchem)
10 | CCCCNCCO [2-(butylamino)ethanol] | 
7.6 | N[C@H]1C(O)O[C@H](CO)[C@@H](O)[C@@H]1O (stereo partly shown) [glucosamine] | 

Structure (SMILES) | pKa [1] | pKa (physchem)
CCNC[C@H](O)[C@@H](O)[C@H](O)[C@H](O)CO [N-ethyl glucamine, N-ethylglucamine] | 9.5 | 
